Measurements as given in PubChem BioAssay (NCI).
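Method: 48-hour compound exposure of cells in 96-well plates, five concentrations, linear interpolation of endpoints. GI50 = concentration required for 50% inhibition of growth. TGI denotes the concentration required for complete inhibition of growth.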

Experiments:
Assay in all cases: growth of human tumour cells (NCI), 48 h; in the data active means GI50 below about 0.43 µM; inactive means the rest
NCI-H226 lung = test system: NCI-H226 lung
NCI-H23 lung = test system: NCI-H23 lung
NCI-H460 lung = test system: NCI-H460 lung
NCI-H522 lung = test system: NCI-H522 lung
NCI/ADR-RES ovarian = test system: NCI/ADR-RES ovarian
OVCAR-3 ovarian = test system: OVCAR-3 ovarian
OVCAR-4 ovarian = test system: OVCAR-4 ovarian
OVCAR-5 ovarian = test system: OVCAR-5 ovarian
OVCAR-8 ovarian = test system: OVCAR-8 ovarian
PC-3 prostate = test system: PC-3 prostate
RPMI-8226 leukemia = test system: RPMI-8226 leukemia
RXF 393 renal = test system: RXF 393 renal
SF-268 CNS = test system: SF-268 CNS
SF-295 CNS = test system: SF-295 CNS
SF-539 CNS = test system: SF-539 CNS
SK-MEL-2 melanoma = test system: SK-MEL-2 melanoma
SK-MEL-28 melanoma = test system: SK-MEL-28 melanoma
SK-MEL-5 melanoma = test system: SK-MEL-5 melanoma
SK-OV-3 ovarian = test system: SK-OV-3 ovarian
SN12C renal = test system: SN12C renal
SNB-19 CNS = test system: SNB-19 CNS
SNB-75 CNS = test system: SNB-75 CNS
SR leukemia = test system: SR leukemia
SW-620 colon = test system: SW-620 colon
T-47D breast = test system: T-47D breast
TK-10 renal = test system: TK-10 renal
U251 CNS = test system: U251 CNS
UACC-257 melanoma = test system: UACC-257 melanoma
UACC-62 melanoma = test system: UACC-62 melanoma
UO-31 renal = test system: UO-31 renal

COc1ccc(C(=O)c2cc(OC)c3c(c2)OCO3)cc1O
9450 nM: TGI (NCI-H460 lung)
1710 nM: TGI (SK-MEL-5 melanoma)
inactive: GI50 (OVCAR-4 ovarian) 1720 nM | GI50 (OVCAR-5 ovarian) 4490 nM | GI50 (PC-3 prostate) 908 nM | GI50 (SF-295 CNS) 832 nM | GI50 (SK-MEL-28 melanoma) 457 nM | GI50 (SN12C renal) 1090 nM | GI50 (T-47D breast) 883 nM | GI50 (TK-10 renal) 5700 nM | GI50 (UACC-257 melanoma) 1130 nM | GI50 (UACC-62 melanoma) 946 nM | GI50 (UO-31 renal) 3640 nM
8810 nM: TGI (NCI-H226 lung)
105 nM: TGI (NCI-H522 lung)
active: GI50 (NCI-H23 lung) 248 nM | GI50 (NCI-H460 lung) 299 nM | GI50 (NCI-H522 lung) 25.9 nM | GI50 (NCI/ADR-RES ovarian) 43.6 nM | GI50 (OVCAR-3 ovarian) 213 nM | GI50 (OVCAR-8 ovarian) 387 nM | GI50 (RPMI-8226 leukemia) 309 nM | GI50 (RXF 393 renal) 215 nM | GI50 (SF-268 CNS) 287 nM | GI50 (SF-539 CNS) 199 nM | GI50 (SK-MEL-2 melanoma) 346 nM | GI50 (SK-MEL-5 melanoma) 261 nM | GI50 (SK-OV-3 ovarian) 200 nM | GI50 (SNB-19 CNS) 377 nM | GI50 (SNB-75 CNS) 166 nM | GI50 (SR leukemia) 42.3 nM | GI50 (SW-620 colon) 57.7 nM | GI50 (U251 CNS) 315 nM
1580 nM: TGI (SK-OV-3 ovarian)
> 79500 nM: TGI (UACC-257 melanoma)
3070 nM: TGI (SF-539 CNS)
16100 nM: TGI (SF-268 CNS)
34600 nM: TGI (SNB-75 CNS)
34400 nM: TGI (SK-MEL-2 melanoma)
674 nM: TGI (RXF 393 renal)
> 100000 nM: TGI (OVCAR-4 ovarian) | TGI (OVCAR-5 ovarian) | TGI (OVCAR-8 ovarian) | TGI (PC-3 prostate) | TGI (SF-295 CNS) | TGI (SK-MEL-28 melanoma) | TGI (SN12C renal) | TGI (SNB-19 CNS) | TGI (SR leukemia) | TGI (SW-620 colon) | TGI (T-47D breast) | TGI (U251 CNS) | TGI (UACC-62 melanoma) | TGI (UO-31 renal)
99400 nM: TGI (TK-10 renal)
> 44000 nM: TGI (RPMI-8226 leukemia)
481 nM: TGI (OVCAR-3 ovarian)
> 24800 nM: TGI (NCI-H23 lung)
